Results from PMC9227305, “Photoinduced Synthesis of Methylated Marine Cyclopeptide Galaxamide Analogs with Isoindolinone as Anticancer Agents” (Marine Drugs, 2022).
Where “and” joins values, the source holds several entries; their conditions need not be identical. Identical values can stand only once. Like-named read-outs stand apart in the source and are kept apart here. *1 amine or outer side, *2 acyl side, *3 side chain or, on linkers, in order; H or OH if unused. Where a SMILES comes first, the peptide text is derived from it. [ ]: non-standard residue; d: D form. X1 = O=C1c2ccccc2[C@@](O)(CN(Cc2ccccc2)[*:1])N1CC(=O)[*:2]; X2 = O=C1c2ccccc2[C@](O)(CN(Cc2ccccc2)[*:1])N1CC(=O)[*:2]; NMeL = CN[C@@H](CC(C)C)C(=O)O; dNMeL = CN[C@H](CC(C)C)C(=O)O

Tests used:
[1] = tested on: HepG-2 cells; assay: cells
Text: (§1) The antitumor activity of the prepared cyclic peptides against human hepatocellular carcinoma cells (HepG-2), human cervical cancer cell lines (HeLa) and human breast cancer cells (MDA-MB-231) was examined by MMT assay, and the mouse fibroblast L929 cells were used as the model cells to evaluate the toxicity of cyclopeptides to normal cell lines. Due to the absence of an authentic standard, taxol was chosen as a control because it is a widely used chemotherapeutic drug for the treatment of various cancers, including liver cancer.
(§2) Samples were dissolved in DMSO and diluted into different concentrations ([…], 18.75, 25, 37.5, 50, 75, 100 and 250 μM) and stored at 4 °C. Cells in the logarithmic growth phase were digested with trypsin and then seeded in 96-well plates at a density of 2 × 10^4 cells/well in 100 μL of culture medium. The cells were treated with different concentrations of the tested compound, and a blank control group without the drug was also set up. Six wells were repeated for each dose. After 48 h of co-incubation, MTT solution (100 μL, 0.5 mg/mL) was added, followed by incubation for another 4 h. After discarding the supernatant, 100 μL of DMSO was added per well, and the absorbance (OD) values were measured at 490 nm using an enzyme marker. Cell viability was calculated by the formula: Cell viability (%) = As/Ab × 100% (where As is the absorbance value of the experimental group and Ab is the absorbance value of the blank group). The obtained data were processed using SPSS19 software to obtain IC50 values.

[2] = tested on: L929 cells; assay: cells
Text: as §1, §2

[3] = tested on: MDA-MB-231 cells; type: cell-based, human; details: 48 h
Text: as §1, §2

[4] = other bond; 21-membered ring; hv (450 W Hg lamp, Pyrex), SET photocyclization
[5] = tested on: renal carcinoma GRC-1 cell lines; parameters: method as in PMID 18816120; details: cited from earlier work
[6] = tested on: human hepatocellular carcinoma HepG-2 cell lines; parameters: method as in PMID 18816120; details: cited from earlier work

**Q.** Which IC50 ([1]; 48 h) does the source give for `CC(C)C[C@@H]1NC(=O)[C@@H](CC(C)C)N(C)C(=O)[C@H](CC(C)C)NC(=O)[C@@H](CC(C)C)N(C)C(=O)[C@H](CC(C)C)NC(=O)CN2C(=O)c3ccccc3[C@]2(O)CN(Cc2ccccc2)C1=O` [Compound 3, 3-Hydroxy-isoindolinone-cyclo-Gly-Leu-N-Me-Leu-Leu-N-Me-Leu-Leu] (cyclo([dNMeL]L[dNMeL]L[X2]L)) here?
**A.** 90.9 ± 7.69 µM

**Q.** And the IC50 ([2]; 48 h)?
**A.** > 400 µM

**Q.** And the IC50 [3]?
**A.** 73.2 ± 2.8 µM

**Q.** Which IC50 ([1]; 48 h) does the source give for `CC(C)C[C@H]1NC(=O)[C@H](CC(C)C)N(C)C(=O)[C@@H](CC(C)C)NC(=O)[C@H](CC(C)C)N(C)C(=O)[C@@H](CC(C)C)NC(=O)CN2C(=O)c3ccccc3[C@]2(O)CN(Cc2ccccc2)C1=O` [Compound 2, 3-Hydroxy-isoindolinone-cyclo-Gly-Leu-N-Me-Leu-Leu-N-Me-Leu-Leu] (cyclo([NMeL][dL][NMeL][dL][X2][dL])) here?
**A.** 72.1 ± 5.8 µM

**Q.** And the IC50 ([2]; 48 h)?
**A.** 364 ± 15.6 µM

**Q.** What about the IC50 [3] of the same molecule?
**A.** 67.6 ± 3.3 µM

**Q.** With `CC(=O)O[C@H]1C(=O)[C@@]2(C)[C@H]([C@H](OC(=O)c3ccccc3)[C@]3(O)C[C@H](OC(=O)[C@H](O)[C@@H](NC(=O)c4ccccc4)c4ccccc4)C(C)=C1C3(C)C)[C@]1(OC(C)=O)CO[C@@H]1C[C@@H]2O` [Taxol, paclitaxel, reference compound] as the molecule, how does the IC50 ([1]; Homo sapiens, HepG2, 48 h, read-out: IC50 HepG-2) read?
**A.** 40.9 ± 5.2 µM

**Q.** What about the IC50 ([2]; Mus musculus, L929, 48 h, read-out: IC50 L929) of the same molecule?
**A.** 141 ± 9.3 µM

**Q.** What does the source list for `CC(C)C[C@@H]1C(=O)N[C@H](CC(C)C)C(=O)N[C@H](CC(C)C)C(=O)N[C@H](CC(C)C)C(=O)N(Cc2ccccc2)C[C@]2(O)c3ccccc3C(=O)N2CC(=O)N[C@H](CC(C)C)C(=O)N1C` [Compound 5, 3-Hydroxy-isoindolinone-cyclo-Gly-Leu-Leu-Leu-N-Me-Leu-Leu] (cyclo([dL][dL][X1][dL][dNMeL][dL]))?
**A.** IC50 ([1]; 48 h): 28.2 ± 6.2 µM; IC50 ([2]; 48 h): 153 ± 10.7 µM; IC50 [3]: 60.8 ± 8.2 µM

**Q.** Which IC50 ([1]; 48 h) does the source give for `CC(C)C[C@@H]1C(=O)N[C@H](CC(C)C)C(=O)N(C)[C@H](CC(C)C)C(=O)N[C@H](CC(C)C)C(=O)N(Cc2ccccc2)C[C@@]2(O)c3ccccc3C(=O)N2CC(=O)N[C@H](CC(C)C)C(=O)N1C` [Compound 1, 3-Hydroxy-isoindolinone-cyclo-(Gly-Leu-N-Me-Leu-Leu-N-Me-Leu-Leu)] (cyclo([dNMeL][dL][dNMeL][dL][X2][dL])) here?
**A.** 38.4 ± 2.2 µM

**Q.** And the IC50 ([2]; 48 h)?
**A.** > 400 µM

**Q.** What about the IC50 [3] of the same molecule?
**A.** 59.3 ± 2.3 µM

**Q.** For “3-Hydroxy-isoindolinone-cyclo-Gly-Leu-N-Me-Leu-Leu-Leu-Leu”, which ring closure, isolated yield [4] is on record?
**A.** 25% and 23%

**Q.** For “cyclo-(L-Leu-L-N-Me-Leu-L-Leu-L-Leu-L-N-Me-Leu-L-Leu) [galaxamide]”, which “in vitro antitumor activity” value [5] is on record?
**A.** strong

**Q.** What about the “in vitro antitumor activity” value [6] of the same molecule?
**A.** strong

**Q.** What does the source list for `CC(C)C[C@@H]1NC(=O)[C@H](CC(C)C)N(C)C(=O)[C@H](CC(C)C)NC(=O)[C@H](CC(C)C)N(C)C(=O)[C@H](CC(C)C)NC(=O)CN2C(=O)c3ccccc3[C@@]2(O)CN(Cc2ccccc2)C1=O` [Compound 4, 3-Hydroxy-isoindolinone-cyclo-Gly-Leu-N-Me-Leu-Leu-N-Me-Leu-Leu] (cyclo([NMeL]L[NMeL]L[X1]L))?
**A.** IC50 ([1]; 48 h): 81 ± 4.29 µM; IC50 ([2]; 48 h): 310 ± 20.1 µM; IC50 [3]: 95.3 ± 8.6 µM

**Q.** Which results are given for `CC(C)C[C@@H]1NC(=O)[C@H](CC(C)C)NC(=O)[C@H](CC(C)C)N(C)C(=O)[C@H](CC(C)C)NC(=O)CN2C(=O)c3ccccc3[C@@]2(O)CN(Cc2ccccc2)C(=O)[C@H](CC(C)C)NC1=O` [Compound 7, 3-Hydroxy-isoindolinone-cyclo-Gly-Leu-Leu-Leu-N-Me-Leu-Leu] (cyclo(LL[X1]L[NMeL]L))?
**A.** IC50 ([1]; 48 h): 30.4 ± 1.6 µM; IC50 ([2]; 48 h): > 400 µM; IC50 [3]: 112 ± 9 µM

**Q.** For `CC(C)C[C@@H]1C(=O)N[C@H](CC(C)C)C(=O)N[C@H](CC(C)C)C(=O)N[C@H](CC(C)C)C(=O)N(Cc2ccccc2)C[C@]2(O)c3ccccc3C(=O)N2CC(=O)N[C@H](CC(C)C)C(=O)N1C` [Compound 6, 3-Hydroxy-isoindolinone-cyclo-Gly-Leu-N-Me-Leu-Leu-Leu-Leu] (cyclo([dL][dL][X1][dL][dNMeL][dL])), which IC50 ([1]; 48 h) is on record?
**A.** 36.1 ± 2.2 µM

**Q.** What about the IC50 ([2]; 48 h) of the same molecule?
**A.** 120 ± 5.3 µM

**Q.** What about the IC50 [3] of the same molecule?
**A.** 67.6 ± 2.3 µM

**Q.** Which ring closure, isolated yield [4] does the source give for “3-Hydroxy-isoindolinone-cyclo-Gly-Leu-Leu-Leu-N-Me-Leu-Leu” here?
**A.** 24% and 28%

**Q.** Which ring closure, isolated yield [4] does the source give for “3-Hydroxy-isoindolinone-cyclo-(Gly-Leu-N-Me-Leu-Leu-N-Me-Leu-Leu)” here?
**A.** 51%

**Q.** Which ring closure, isolated yield [4] does the source give for “3-Hydroxy-isoindolinone-cyclo-Gly-Leu-N-Me-Leu-Leu-N-Me-Leu-Leu” here?
**A.** 48% and 43% and 45%
